What was measured:
[1] = target: Mu-type opioid receptor (Homo sapiens, UniProt P35372)
[2] = target: T1, Thromboxane A2 receptor (Homo sapiens, UniProt P21731); assay type: functional, cell-based
T1 sequence (P21731 whole entry): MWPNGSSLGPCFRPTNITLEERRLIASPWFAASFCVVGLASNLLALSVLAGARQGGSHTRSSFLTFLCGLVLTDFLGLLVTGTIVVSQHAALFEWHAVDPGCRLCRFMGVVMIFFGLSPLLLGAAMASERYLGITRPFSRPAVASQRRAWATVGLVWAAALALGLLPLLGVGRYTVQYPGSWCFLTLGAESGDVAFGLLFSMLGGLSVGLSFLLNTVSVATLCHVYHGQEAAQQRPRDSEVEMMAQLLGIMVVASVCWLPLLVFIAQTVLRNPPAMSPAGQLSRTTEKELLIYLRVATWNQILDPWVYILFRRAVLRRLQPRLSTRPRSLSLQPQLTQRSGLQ

[3] = target: Prostaglandin G/H synthase 1 (Homo sapiens, UniProt P23219); assay type: functional
[4] = target: Sodium-dependent noradrenaline transporter (Homo sapiens, UniProt P23975)
[5] = target: Histamine H3 receptor (Homo sapiens, UniProt Q9Y5N1)
[6] = target: T2, Progesterone receptor (Homo sapiens, UniProt P06401)
T2 sequence (P06401 whole entry): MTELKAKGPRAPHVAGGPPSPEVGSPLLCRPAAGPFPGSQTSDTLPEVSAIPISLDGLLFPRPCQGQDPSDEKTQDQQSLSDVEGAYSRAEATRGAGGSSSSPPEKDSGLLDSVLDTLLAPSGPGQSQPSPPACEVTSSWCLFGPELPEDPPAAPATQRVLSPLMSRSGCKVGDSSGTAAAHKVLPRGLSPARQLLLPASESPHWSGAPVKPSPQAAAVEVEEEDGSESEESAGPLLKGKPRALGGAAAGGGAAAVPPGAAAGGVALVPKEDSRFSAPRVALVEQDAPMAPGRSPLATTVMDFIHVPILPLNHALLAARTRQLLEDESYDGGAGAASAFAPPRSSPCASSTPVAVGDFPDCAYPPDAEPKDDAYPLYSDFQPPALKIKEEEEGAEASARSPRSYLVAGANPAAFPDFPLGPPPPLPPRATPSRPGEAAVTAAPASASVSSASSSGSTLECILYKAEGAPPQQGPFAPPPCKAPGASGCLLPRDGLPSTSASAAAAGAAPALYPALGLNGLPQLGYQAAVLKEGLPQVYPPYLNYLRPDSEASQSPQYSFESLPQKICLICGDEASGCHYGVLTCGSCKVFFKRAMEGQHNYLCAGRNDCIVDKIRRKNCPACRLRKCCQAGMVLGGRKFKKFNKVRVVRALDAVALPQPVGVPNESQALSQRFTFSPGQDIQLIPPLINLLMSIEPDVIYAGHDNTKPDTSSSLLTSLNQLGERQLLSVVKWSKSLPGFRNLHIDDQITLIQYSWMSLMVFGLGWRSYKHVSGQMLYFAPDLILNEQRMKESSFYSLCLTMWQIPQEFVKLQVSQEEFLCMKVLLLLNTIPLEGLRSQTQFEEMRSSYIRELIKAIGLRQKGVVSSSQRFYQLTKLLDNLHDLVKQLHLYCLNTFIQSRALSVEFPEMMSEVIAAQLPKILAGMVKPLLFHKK

[7] = target: T3, Alpha-1A adrenergic receptor (Homo sapiens, UniProt P35348); assay type: functional, cell-based
T3 sequence (P35348 whole entry): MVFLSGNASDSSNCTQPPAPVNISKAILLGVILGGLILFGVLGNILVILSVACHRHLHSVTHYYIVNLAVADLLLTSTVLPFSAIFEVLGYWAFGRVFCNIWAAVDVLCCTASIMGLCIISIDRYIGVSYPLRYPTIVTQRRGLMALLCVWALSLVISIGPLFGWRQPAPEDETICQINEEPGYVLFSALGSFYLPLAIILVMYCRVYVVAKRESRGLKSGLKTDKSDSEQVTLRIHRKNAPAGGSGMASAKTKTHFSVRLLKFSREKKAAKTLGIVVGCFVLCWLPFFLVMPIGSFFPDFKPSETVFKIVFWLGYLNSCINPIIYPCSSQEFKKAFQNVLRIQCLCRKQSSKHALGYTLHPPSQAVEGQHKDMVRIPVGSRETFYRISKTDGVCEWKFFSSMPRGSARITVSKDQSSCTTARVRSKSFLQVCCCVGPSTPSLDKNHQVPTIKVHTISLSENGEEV

[8] = target: Prothrombin (Homo sapiens, UniProt P00734); assay type: functional
[9] = target: T4, Muscarinic acetylcholine receptor M1 (Homo sapiens, UniProt P11229); assay type: functional, cell-based
T4 sequence (P11229 whole entry): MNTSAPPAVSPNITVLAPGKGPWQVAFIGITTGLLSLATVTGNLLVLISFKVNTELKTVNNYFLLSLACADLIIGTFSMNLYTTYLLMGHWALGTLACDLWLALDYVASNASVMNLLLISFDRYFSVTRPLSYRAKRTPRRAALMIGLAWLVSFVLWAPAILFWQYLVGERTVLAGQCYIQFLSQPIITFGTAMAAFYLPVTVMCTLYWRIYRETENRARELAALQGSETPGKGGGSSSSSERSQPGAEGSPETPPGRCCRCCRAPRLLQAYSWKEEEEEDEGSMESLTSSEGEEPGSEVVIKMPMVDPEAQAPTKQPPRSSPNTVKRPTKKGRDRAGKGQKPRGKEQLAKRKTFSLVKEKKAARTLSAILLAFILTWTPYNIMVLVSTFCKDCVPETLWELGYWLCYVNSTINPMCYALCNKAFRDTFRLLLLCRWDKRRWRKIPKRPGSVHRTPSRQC

[10] = target: T5, Adenosine receptor A3 (Homo sapiens, UniProt P0DMS8)
T5 sequence (P0DMS8 whole entry): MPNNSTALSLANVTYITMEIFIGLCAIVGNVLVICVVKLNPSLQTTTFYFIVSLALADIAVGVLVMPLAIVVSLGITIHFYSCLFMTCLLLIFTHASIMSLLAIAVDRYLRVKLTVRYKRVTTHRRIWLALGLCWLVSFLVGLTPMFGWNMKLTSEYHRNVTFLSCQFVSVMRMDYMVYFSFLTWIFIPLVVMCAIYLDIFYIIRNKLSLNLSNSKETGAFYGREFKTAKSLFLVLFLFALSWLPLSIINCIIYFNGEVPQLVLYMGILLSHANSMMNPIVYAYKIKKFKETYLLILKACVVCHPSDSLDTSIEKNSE

[11] = target: Acetylcholinesterase (Homo sapiens, UniProt P22303); assay type: functional
[12] = target: D(1A) dopamine receptor (Homo sapiens, UniProt P21728)
Further: assay procedure not described here.

Sequence of D(1A) dopamine receptor (P21728 whole entry): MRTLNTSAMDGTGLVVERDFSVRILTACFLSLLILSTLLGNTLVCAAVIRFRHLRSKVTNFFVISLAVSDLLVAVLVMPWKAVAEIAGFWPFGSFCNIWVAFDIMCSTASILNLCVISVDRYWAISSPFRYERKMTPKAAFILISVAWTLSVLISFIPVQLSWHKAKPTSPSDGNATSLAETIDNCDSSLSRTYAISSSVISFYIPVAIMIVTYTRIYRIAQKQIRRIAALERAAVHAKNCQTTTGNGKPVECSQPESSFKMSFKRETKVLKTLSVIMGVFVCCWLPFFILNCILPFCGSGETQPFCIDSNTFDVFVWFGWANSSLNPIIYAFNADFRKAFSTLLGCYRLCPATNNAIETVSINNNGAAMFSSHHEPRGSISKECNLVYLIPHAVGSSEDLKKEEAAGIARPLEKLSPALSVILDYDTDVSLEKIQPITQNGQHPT
Sequence of Mu-type opioid receptor (P35372 whole entry): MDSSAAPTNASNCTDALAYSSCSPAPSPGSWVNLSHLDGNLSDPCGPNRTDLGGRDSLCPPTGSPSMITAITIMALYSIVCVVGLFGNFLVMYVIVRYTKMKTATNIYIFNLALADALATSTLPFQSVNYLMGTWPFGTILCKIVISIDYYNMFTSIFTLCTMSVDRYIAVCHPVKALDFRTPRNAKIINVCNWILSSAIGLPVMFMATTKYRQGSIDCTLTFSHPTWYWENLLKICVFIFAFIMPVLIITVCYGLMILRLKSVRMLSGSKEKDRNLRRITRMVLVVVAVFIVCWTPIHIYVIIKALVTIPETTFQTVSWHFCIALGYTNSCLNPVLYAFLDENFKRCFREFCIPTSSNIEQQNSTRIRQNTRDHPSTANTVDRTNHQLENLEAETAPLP
Sequence of Prostaglandin G/H synthase 1 (P23219 whole entry): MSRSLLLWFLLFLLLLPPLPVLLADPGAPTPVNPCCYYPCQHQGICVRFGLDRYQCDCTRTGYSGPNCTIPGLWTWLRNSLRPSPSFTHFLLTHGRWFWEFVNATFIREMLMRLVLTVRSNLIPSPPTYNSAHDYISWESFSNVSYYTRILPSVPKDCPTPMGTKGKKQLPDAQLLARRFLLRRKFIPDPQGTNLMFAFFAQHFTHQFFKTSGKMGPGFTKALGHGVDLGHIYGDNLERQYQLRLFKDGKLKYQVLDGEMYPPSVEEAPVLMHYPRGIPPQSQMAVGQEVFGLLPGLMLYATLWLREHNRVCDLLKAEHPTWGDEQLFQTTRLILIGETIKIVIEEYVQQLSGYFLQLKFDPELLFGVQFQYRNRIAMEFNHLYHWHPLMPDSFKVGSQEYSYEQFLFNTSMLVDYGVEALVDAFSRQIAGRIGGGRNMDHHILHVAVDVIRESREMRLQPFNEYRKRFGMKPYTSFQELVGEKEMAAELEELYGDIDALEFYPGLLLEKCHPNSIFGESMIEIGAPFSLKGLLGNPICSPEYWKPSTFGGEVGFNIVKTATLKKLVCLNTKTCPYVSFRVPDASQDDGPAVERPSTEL
Sequence of Sodium-dependent noradrenaline transporter (P23975 whole entry): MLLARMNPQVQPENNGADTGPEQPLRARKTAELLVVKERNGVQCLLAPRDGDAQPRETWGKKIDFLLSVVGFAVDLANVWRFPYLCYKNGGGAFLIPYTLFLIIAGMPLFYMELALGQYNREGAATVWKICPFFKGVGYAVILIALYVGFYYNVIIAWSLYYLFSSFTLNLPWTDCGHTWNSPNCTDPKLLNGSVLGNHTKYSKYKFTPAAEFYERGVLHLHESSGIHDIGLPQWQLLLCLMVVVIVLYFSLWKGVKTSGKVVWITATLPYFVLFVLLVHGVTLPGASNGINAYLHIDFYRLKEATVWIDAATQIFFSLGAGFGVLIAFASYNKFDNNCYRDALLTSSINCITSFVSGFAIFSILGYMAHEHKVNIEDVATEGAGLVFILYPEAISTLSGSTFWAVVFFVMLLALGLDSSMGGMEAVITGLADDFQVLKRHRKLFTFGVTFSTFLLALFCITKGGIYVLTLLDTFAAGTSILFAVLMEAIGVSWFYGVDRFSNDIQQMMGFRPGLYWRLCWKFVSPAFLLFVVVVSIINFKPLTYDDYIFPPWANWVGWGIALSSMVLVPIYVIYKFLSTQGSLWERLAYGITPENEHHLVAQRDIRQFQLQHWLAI
Sequence of Acetylcholinesterase (P22303 whole entry): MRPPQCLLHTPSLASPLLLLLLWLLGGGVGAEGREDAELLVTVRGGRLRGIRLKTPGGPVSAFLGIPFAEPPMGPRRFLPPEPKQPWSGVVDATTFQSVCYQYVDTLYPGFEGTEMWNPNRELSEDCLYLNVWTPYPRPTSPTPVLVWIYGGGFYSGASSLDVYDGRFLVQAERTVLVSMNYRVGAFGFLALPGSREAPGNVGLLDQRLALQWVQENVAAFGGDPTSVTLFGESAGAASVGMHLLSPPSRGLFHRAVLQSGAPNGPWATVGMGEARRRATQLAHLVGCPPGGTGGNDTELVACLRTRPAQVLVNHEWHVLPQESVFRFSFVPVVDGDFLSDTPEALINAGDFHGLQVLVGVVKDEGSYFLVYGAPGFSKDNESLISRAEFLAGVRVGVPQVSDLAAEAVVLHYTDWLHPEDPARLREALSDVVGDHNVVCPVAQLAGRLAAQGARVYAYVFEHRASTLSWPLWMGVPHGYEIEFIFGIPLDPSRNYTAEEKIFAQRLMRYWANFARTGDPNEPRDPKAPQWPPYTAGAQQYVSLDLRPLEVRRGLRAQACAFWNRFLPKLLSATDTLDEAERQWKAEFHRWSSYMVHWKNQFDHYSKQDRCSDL
Sequence of Histamine H3 receptor (Q9Y5N1 whole entry): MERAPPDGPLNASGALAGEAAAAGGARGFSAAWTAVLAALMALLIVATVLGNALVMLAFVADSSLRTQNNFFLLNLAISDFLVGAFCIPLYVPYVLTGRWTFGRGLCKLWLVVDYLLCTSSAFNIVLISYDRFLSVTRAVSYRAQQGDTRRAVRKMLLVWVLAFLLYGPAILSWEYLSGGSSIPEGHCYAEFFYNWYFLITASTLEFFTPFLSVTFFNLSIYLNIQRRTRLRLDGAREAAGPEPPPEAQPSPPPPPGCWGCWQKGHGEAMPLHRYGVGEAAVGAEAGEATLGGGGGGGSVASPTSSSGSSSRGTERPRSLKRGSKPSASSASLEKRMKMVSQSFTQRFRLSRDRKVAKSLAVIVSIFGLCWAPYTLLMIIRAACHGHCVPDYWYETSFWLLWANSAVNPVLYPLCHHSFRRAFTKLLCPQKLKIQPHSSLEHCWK

| SMILES | AC50 [1] [µM] | AC50 [2] [µM] | AC50 [3] [µM] | AC50 [4] [µM] | AC50 [5] [µM] | AC50 [6] [µM] | AC50 [7] [µM] | AC50 [8] [µM] | AC50 [9] [µM] | AC50 [10] [µM] | AC50 [11] [µM] | AC50 [12] [µM] |
| --- | --- | --- | --- | --- | --- | --- | --- | --- | --- | --- | --- | --- |
| CC(C)(C)N1CCC(c2ccccc2)(c2ccccc2)CC1 [BUDIPINE] | 12.6 | > 30 | > 30 | > 30 | > 30 | > 30 | > 30 | > 30 | 0.57 | > 30 | > 30 | > 30 |
| C=CCN1C[C@H](C(=O)N(CCCN(C)C)C(=O)NCC)C[C@@H]2c3cccc4[nH]cc(c34)C[C@H]21 [CABERGOLINE] | > 30 | > 30 | > 30 | 29.6 | > 30 | > 30 | 0.142 | > 30 | > 30 | > 30 | 11.4 | 0.648 |
| CC(=O)OCC1=C(C(=O)O)N2C(=O)[C@@H](NC(=O)[C@H](N)c3ccccc3)[C@H]2SC1 [CEPHALOGLYCIN] | > 30 | > 30 | 26.5 | > 30 | > 30 | > 30 | > 30 | > 30 | > 30 | > 30 | > 30 | > 30 |
| CC(C)(C)C(=O)C(Oc1ccc(Cl)cc1)n1ccnc1 (centres undefined) [CLIMBAZOLE] | > 30 | > 30 | > 30 | 20.8 | > 30 | > 30 | > 30 | > 30 | 10.2 | 20.2 | > 30 | > 30 |
| NC1CCN(c2c(F)cc3c(=O)c(C(=O)O)cn(C4CC4)c3c2Cl)C1 (centres undefined) [CLINAFLOXACIN] | 4.91 | > 30 | > 30 | > 30 | > 30 | > 30 | > 30 | > 30 | > 30 | > 30 | > 30 | > 30 |
| CC(C)(C)CC(C)(C)c1ccc(O)c(Cc2ccc(Cl)cc2Cl)c1 [CLOFOCTOL] | 22 | > 30 | 29.2 | 3.4 | > 30 | 1.15 | > 30 | > 30 | > 10 | 1.12 | > 30 | 29.7 |
| Clc1ccc(C(OCCN2CCCCC2)c2ccccc2)cc1 (centres undefined) [CLOPERASTINE] | 13.6 | > 30 | > 30 | 6.39 | > 30 | > 30 | > 30 | > 30 | 0.551 | > 30 | > 30 | 5.96 |

Source: ChEMBL document CHEMBL5291721, “A preclinical secondary pharmacology resource illuminates target-adverse drug reaction associations of marketed drugs” (Nat Commun, 2023)
